These results are taken from patent publication US20130004651A1, “SUSTAINED DRUG RELEASE FROM BODY IMPLANTS USING NANOPARTICLE-EMBEDDED POLYMERIC COATING MATERIALS” (priority 2011, published 2013).

A short description of the data set: Sustained release study (fluorescence intensity vs. time). The class given is physicochemical. The method, then: Step 3: Sustained Release Study
FIGS. 6a and 6b show the sustained release of chloramphenicol (at 1 and 4 molar concentrations, respectively) from the liposomes described above as a function of fluorescence intensity vs. time at a release rate of about 0.65 mg/day.

Turning to vitamin E, the release rate entry (sustained release from reverse micelles (FIG. 6c)) was “about 113 mg/day”.

Turning to `O=C(N[C@H](CO)[C@H](O)c1ccc([N+](=O)[O-])cc1)C(Cl)Cl` [chloramphenicol], the release rate entry (sustained release from liposomes, 1 and 4 molar concentrations (FIGS. 6a, 6b)) was “about 0.65 mg/day”.
